Test results: patent US7960427B2, “5-hydroxyindole-3-carboxylate derivatives and uses thereof” (priority 2004, dated 2011)
Converted amounts (≈) assume the structure as drawn. Counter-ions that a name gives are not always drawn.

Experiments:
[1] = tested on: influenza A virus, strain A/jifang/90-15; experiment: microbe, parasite or virus in culture; type: cell-based; conditions: for IC50: Influenza A virus, Influenza strain A/jifang/90-15, MDCK cells, CPE, Reed-Muench, read-out: IC50; for SI: Influenza strain A/jifang/90-15
[2] = tested on: Madin-Darby canine kidney (MDCK) cells
[3] = tested on: HBeAg; experiment: In vitro anti-HBV activity: HBeAg production in HBV-infected 2.2.15 cells (RIA); type: cell-based, Hepatitis B virus (HBV); conditions: for IC50: Hepatitis B virus, read-out: HBeAg IC50; for HBeAg SI: selectivity index
Protocol: (§1) All compounds were evaluated for their anti-HBV activities, namely the ability to inhibit the replication of HBV DNA and the production of HBsAg and HBeAg in HBV-infected 2.2.15 cells.
(§2) The samples were dissolved in DMSO for appropriate concentrations, and then each was diluted 3-fold with culture medium. The 2.2.15 cells were planted into 96-well culture plates. […] The culture supernatants and 2.2.15 cells were collected respectively on the 8th plant day. The secretion concentrations of HBsAg and HBeAg in the culture supernatants were measured by RIA on SPRIA Kit for Detection of HBsAg and HBeAg (Beijing North Institute of Biological Technology), and the replication of HBV DNA was measured by dot hybridization with a^32PdCTP (FuRui Biological Technology Ltd., China).

[4] = tested on: 2.2.15 cells; experiment: Cytotoxicity (TC50) in 2.2.15 cells; type: cell-based
[5] = tested on: HBV DNA; experiment: In vitro anti-HBV activity: replication of HBV DNA in 2.2.15 cells (dot hybridization); type: cell-based, Hepatitis B virus (HBV); conditions: for IC50: Hepatitis B virus, read-out: DNA replication IC50; for DNA replication SI: selectivity index
Summary of the method: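 HBV-producing 2.2.15 cells exposed to 3-fold serial dilutions of compound (DMSO stocks diluted in medium); cells and supernatants harvested on day 8. Intracellular HBV DNA replication quantified by dot hybridization with α-32P-dCTP probe; HBsAg/HBeAg in supernatant by RIA.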

[6] = tested on: HBsAg; experiment: In vitro anti-HBV activity: HBsAg production in HBV-infected 2.2.15 cells (RIA); type: cell-based, Hepatitis B virus (HBV); conditions: for IC50: Hepatitis B virus, read-out: HBsAg IC50; for HBsAg SI: selectivity index
Protocol: as §1, §2

SMILES | IC50 [1] [mg/L] | SI [1] | TC50 [2] [mg/L] | IC50 [3] [mg/L] | HBeAg SI [3] | TC50 [4] [mg/L] | IC50 [5] [mg/L] | DNA replication SI [5] | IC50 [6] [mg/L] | HBsAg SI [6]
CCOC(=O)c1c(CSCc2ccc(F)cc2)n(C)c2cc(Br)c(O)c(Cn3ccnc3C)c12 [Example 100, Ethyl 6-bromo-5-hydroxy-1-methyl-4-[(2-methyl-1-imidazolyl)methyl]-2-[(4-fluorobenzyl)thiomethyl]-1H-indole-3-carboxylate] | 22.1 (≈ 40.4 µM) | 2.24 | 49.61 (≈ 90.8 µM) | – | – | – | – | – | – | –
CCOC(=O)c1c(CSCc2ccccc2)n(C2CC2)c2cc(Br)c(O)c(Cn3ccnc3)c12 [Example 91, Ethyl 6-bromo-1-cyclopropyl-5-hydroxy-4-[(1-imidazolyl)methyl]-2-(benzylthiomethyl)-1H-indole-3-carboxylate] | 15.6 (≈ 28.9 µM) | 18.77 | 293.37 (≈ 543 µM) | – | – | – | – | – | – | –
CCOC(=O)c1c(CS(=O)(=O)c2cccc(OC)c2)n(C)c2ccc(O)c(CN3CCCC3)c12 [Example 72, Ethyl 5-hydroxy-1-methyl-4-(1-pyrrolidinylmethyl)-2-[(3-methoxyphenyl)sulfonylmethyl]-1H-indole-3-carboxylate hydrochloride] | – | – | – | 15.4 | 6.9 | 106.83 | 15.4 | 6.9 | – | –
CCOC(=O)c1c(CSCc2ccc(F)cc2)n(C)c2cc(Br)c(O)c(Cn3ccnc3)c12 [Example 92, Ethyl 6-bromo-5-hydroxy-4-[(1-imidazolyl)methyl]-1-methyl-2-[(4-fluorobenzyl)thiomethyl]-1H-indole-3-carboxylate] | 7.81 (≈ 14.7 µM) | 2.35 | 18.34 (≈ 34.4 µM) | – | – | – | – | – | – | –
CCOC(=O)c1c(CSCc2ccccc2F)n(C2CC2)c2cc(Br)c(O)c(CN3CCCC3)c12.Cl [Example 14, Ethyl 6-bromo-1-cyclopropyl-5-hydroxy-4-(1-pyrrolidinylmethyl)-2-[(2-fluorobenzyl)thiomethyl]-1H-indole-3-carboxylate hydrochloride] | 0.92 | 2.7 | 2.48 | – | – | – | – | – | – | –
CCOC(=O)c1c(CSCc2ccccc2)n(C)c2cc(Br)c(O)c(CNC(=N)N)c12 [Example 104, Ethyl 6-bromo-4-(guanidinylmethyl)-5-hydroxy-1-methyl-2-(benzylthiomethyl)-1H-indole-3-carboxylate] | 13.3 (≈ 26.4 µM) | 11.16 | 148.65 (≈ 294 µM) | – | – | – | – | – | – | –
CCOC(=O)c1c(CSCc2ccc(F)cc2)n(C)c2cc(Br)c(O)c(Cn3cncn3)c12 [Example 187, Ethyl 6-bromo-5-hydroxy-1-methyl-4-[(1H-1,2,4-triazol-1-yl)methyl]-2-[(4-fluorobenzyl)thiomethyl]-1H-indole-3-carboxylate] | 26.6 (≈ 49.9 µM) | 1.66 | 44.19 (≈ 82.8 µM) | – | – | – | – | – | – | –
CCOC(=O)c1c(CSCc2ccccc2)n(C2CC2)c2cc(Br)c(O)c(CNC(=N)N)c12 [Example 188, Ethyl 6-bromo-1-cyclopropyl-4-(guanidinylmethyl)-5-hydroxy-2-(benzylthiomethyl)-1H-indole-3-carboxylate] | 9.85 (≈ 18.5 µM) | 4.0 | 39.37 (≈ 74.1 µM) | – | – | – | – | – | – | –
CCOC(=O)c1c(CSc2nc3ccc(OC)cc3[nH]2)n(C)c2cc(Br)c(O)c(CN3CCOCC3)c12 [Example 25, Ethyl 6-bromo-5-hydroxy-1-methyl-4-(morpholinomethyl)-2-[(5-methoxybenzo[d]imidazol-2-yl)thiomethyl]-1H-indole-3-carboxylate] | 22.1 (≈ 37.5 µM) | 5.66 | 125.0 (≈ 212 µM) | – | – | – | – | – | – | –
CCOC(=O)c1c(CSc2ccccc2)n(C)c2cc(Br)c(O)c(CN(C)C)c12.Cl.O [Abidol, Ethyl 6-bromo-4-[(dimethylamino)methyl]-5-hydroxy-1-methyl-2-(phenyl-thiomethyl)-1H-indole-3-carboxylate hydrochloride monohydrate, reference compound] | 23.2 | 2.69 | 62.5 | – | – | – | – | – | – | –
CCOC(=O)c1c(CS(=O)(=O)C23CC4CC(CC(C4)C2)C3)n(C)c2cc(Br)c(O)c(Cn3ccnc3C)c12 [Example 179, Ethyl 6-bromo-5-hydroxy-1-methyl-4-[(2-methyl-1-imidazolyl)methyl]-2-[(1-adamantanyl)sulfonylmethyl]-1H-indole-3-carboxylate] | – | – | – | 1.91 (≈ 3.16 µM) | 5.60 | 10.69 (≈ 17.7 µM) | – | – | 1.88 (≈ 3.11 µM) | 5.69
CCOC(=O)c1c(CSc2nc3ccccc3[nH]2)n(C)c2cc(Br)c(O)c(CNC(=N)N)c12 [Example 189, Ethyl 6-bromo-4-(guanidinylmethyl)-5-hydroxy-1-methyl-2-[(benzo[d]imidazol-2-yl)thiomethyl]-1H-indole-3-NL carboxylate] | – | – | – | 28 (≈ 52.6 µM) | 9.25 | 258.69 (≈ 487 µM) | 12.4 (≈ 23.3 µM) | 20.91 | 12.5 (≈ 23.6 µM) | 20.66
CCOC(=O)c1c(CS(=O)(=O)Cc2ccccc2)n(C2CC2)c2cc(Br)c(O)c(Cn3ccnc3C)c12 [Example 178, Ethyl 6-bromo-1-cyclopropyl-5-hydroxy-4-[(2-methyl-1-imidazolyl)methyl]-2-(benzylsulfonylmethyl)-1H-indole-3-carboxylate] | 7.81 (≈ 13.3 µM) | 10.08 | 78.75 (≈ 134 µM) | – | – | – | – | – | – | –
CCOC(=O)c1c(CSCc2ccccc2F)n(C2CC2)c2cc(Br)c(O)c(Cn3cncn3)c12 [Example 186, Ethyl 6-bromo-1-cyclopropyl-5-hydroxy-4-[(1H-1,2,4-triazol-1-yl)methyl]-2-[(2-fluorobenzyl)thiomethyl]-1H-indole-3-carboxylate] | 9.17 (≈ 16.4 µM) | 6.82 | 62.5 (≈ 112 µM) | – | – | – | – | – | – | –
CCOC(=O)c1c(CSCc2ccccc2)n(C)c2cc(Br)c(O)c(Cn3ccnc3)c12 [Example 176, Ethyl 6-bromo-5-hydroxy-4-[(1-imidazolyl)methyl]-1-methyl-2-(benzylthiomethyl)-1H-indole-3-carboxylate] | 15.6 (≈ 30.4 µM) | 8.0 | 125 (≈ 243 µM) | – | – | – | – | – | – | –
CCOC(=O)c1c(C[S+]([O-])Cc2ccccc2)n(C2CC2)c2cc(Br)c(O)c(Cn3ccnc3)c12 (stereo not drawn) [Example 126, Ethyl 6-bromo-1-cyclopropyl-5-hydroxy-4-[(1-imidazolyl)methyl]-2-(benzylsulfinylmethyl)-1H-indole-3-carboxylate] | 11.1 (≈ 19.9 µM) | 4.0 | 44.19 (≈ 79.4 µM) | – | – | 35.61 (≈ 64 µM) | 6.36 (≈ 11.4 µM) | 5.60 | – | –
CCOC(=O)c1c(C[S+]([O-])Cc2cscn2)n(C2CC2)c2cc(Br)c(O)c(Cn3ccnc3C)c12 (stereo not drawn) [Example 182, Ethyl 6-bromo-1-cyclopropyl-5-hydroxy-4-[(2-methyl-1-imidazolyl)methyl]-2-[(4-thiazolylmethyl)sulfinylmethyl]-1H-indole-3-carboxylate dihydrochloride] | – | – | – | 7.69 | 8.34 | 64.15 | – | – | 4.66 | 13.77
CCOC(=O)c1c(CSc2nc3ccccc3[nH]2)n(C)c2cc(Br)c(O)c(CN(C)C)c12 [Example 3, Ethyl 6-bromo-4-[(dimethylamino)methyl]-5-hydroxy-1-methyl-2-[(benzo[d]imidazol-2-yl)thiomethyl]-1H-indole-3-carboxylate] | 7.81 (≈ 15.1 µM) | 1.59 | 12.4 (≈ 24 µM) | – | – | – | – | – | – | –
CCOC(=O)c1c(C[S+]([O-])Cc2cscn2)n(C2CC2)c2cc(Br)c(O)c(Cn3ccnc3)c12 (stereo not drawn) [Example 128, Ethyl 6-bromo-1-cyclopropyl-5-hydroxy-4-[(1-imidazolyl)methyl]-2-[(4-thiazolylmethyl)sulfinylmethyl]-1H-indole-3-carboxylate dihydrochloride] | – | – | – | 8.06 | 6.63 | 53.42 | – | – | 7.23 | 7.39
CCOC(=O)c1c(CSCc2ccc(F)cc2)n(C)c2cc(Br)c(O)c(CN(C)C)c12.Cl [Example 5, Ethyl 6-bromo-4-[(dimethylamino)methyl]-5-hydroxy-1-methyl-2-[(4-fluorobenzyl)thiomethyl]-1H-indole-3-carboxylate hydrochloride] | 7.81 | 6.34 | 49.51 | – | – | – | – | – | – | –
